Results taken from patent US20150344540A1, “NOVEL GLP-1 RECEPTOR AGONISTS WITH CHOLESTEROL EFFLUX ACTIVITY” (NOVO NORDISK A/S, priority 2012, published 2015).
Where two headings read alike, the source gives them in different places. Where a SMILES comes first, the peptide text is derived from it. Where no end group is shown, it is not given here. [ ]: non-standard residue; d: D form. Aib = CC(C)(N)C(=O)O

Assays:
[1] = test system: Mouse monocyte/macrophage cell line, RAW 264.7; assay: Cholesterol efflux assay (3H-cholesterol, macrophage cell line); assay type: cell-based; details: RAW 264.7, 4 hrs incubation, 0.1% human serum albumin, ABCA1-mediated efflux
human GLP-1 receptor = human GLP-1 receptor (Homo sapiens, UniProt P43220); assay: Functional GLP-1 receptor assay, in vitro potency (CRE luciferase; whole cells); assay type: cell-based; details: BHK cells expressing human GLP-1 receptor
Sequence of human GLP-1 receptor (P43220 24-463): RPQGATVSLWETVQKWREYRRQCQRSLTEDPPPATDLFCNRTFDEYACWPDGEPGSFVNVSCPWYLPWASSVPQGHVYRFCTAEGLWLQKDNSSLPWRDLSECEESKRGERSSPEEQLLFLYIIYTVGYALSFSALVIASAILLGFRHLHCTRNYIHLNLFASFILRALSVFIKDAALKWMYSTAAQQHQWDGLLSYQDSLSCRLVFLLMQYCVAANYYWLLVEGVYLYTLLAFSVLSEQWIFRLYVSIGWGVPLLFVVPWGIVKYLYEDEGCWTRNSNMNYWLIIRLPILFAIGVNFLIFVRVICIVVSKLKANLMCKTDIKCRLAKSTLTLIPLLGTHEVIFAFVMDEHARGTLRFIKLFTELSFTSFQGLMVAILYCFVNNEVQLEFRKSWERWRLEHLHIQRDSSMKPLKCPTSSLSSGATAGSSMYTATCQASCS

[2] = 0% HSA, read-out: GLP1R CRE luc 0% HSA EC50 Mean Value
[3] = GLP1R CRE luc 1% HSA EC50 Mean Value, 1% HSA

| Compound | EC50 (human GLP-1 receptor; [2]) [pM] | EC50 (human GLP-1 receptor; [3]) [pM] | 4 h Cholesterol Efflux Emax [1] [%] |
| --- | --- | --- | --- |
| CC[C@H](C)[C@H](NC(=O)[C@H](Cc1ccccc1)NC(=O)[C@H](CCC(=O)O)NC(=O)[C@H](CCCNC(=N)N)NC(=O)[C@@H](NC(=O)[C@H](C)NC(=O)[C@H](CCC(=O)O)NC(=O)CNC(=O)[C@H](CCC(=O)O)NC(=O)[C@H](CCSC)NC(=O)[C@H](CCC(N)=O)NC(=O)[C@H](CCCCN)NC(=O)[C@H](CO)NC(=O)[C@H](CC(C)C)NC(=O)[C@H](CC(=O)O)NC(=O)[C@H](CO)NC(=O)[C@@H](NC(=O)[C@H](Cc1ccccc1)NC(=O)[C@@H](NC(=O)CNC(=O)[C@H](CCC(=O)O)NC(=O)C(C)(C)NC(=O)[C@@H](N)Cc1c[nH]cn1)[C@@H](C)O)[C@@H](C)O)C(C)C)C(=O)N[C@@H](CCC(=O)O)C(=O)N[C@@H](Cc1c[nH]c2ccccc12)C(=O)N[C@@H](CC(C)C)C(=O)N[C@@H](CCCCN)C(=O)N[C@@H](CC(N)=O)C(=O)N[C@@H](CCCCN)C(=O)NC(C)(C)C(=O)N[C@@H](CC(C)C)C(=O)N[C@@H](CCC(=O)O)C(=O)N[C@@H](Cc1ccccc1)C(=O)N[C@@H](CC(C)C)C(=O)N[C@@H](CCC(=O)O)C(=O)N[C@@H](CC(C)C)C(=O)N[C@@H](CC(C)C)C(N)=O [Compound 2, [Aib2, Glv16,Glu21,Lys29,Aib30,Leu31,Glu32,Phe33,Leu34,Glu35,Leu36,Leu371-Exendin-4-(1-37)-peptide amide] (H-H[Aib]EGTFTSDLSKQMEGEAVREFIEWLKNK[Aib]LEFLELL-NH2; N-terminus assumed) |  |  | 83 |
| CC[C@H](C)[C@H](NC(=O)[C@H](Cc1ccccc1)NC(=O)[C@H](CCC(=O)O)NC(=O)[C@H](CCCCN)NC(=O)[C@@H](NC(=O)C(C)(C)NC(=O)[C@H](CCC(=O)O)NC(=O)CNC(=O)[C@H](CCC(=O)O)NC(=O)[C@H](CC(C)C)NC(=O)[C@H](Cc1ccc(O)cc1)NC(=O)[C@H](CO)NC(=O)[C@H](CO)NC(=O)[C@@H](NC(=O)[C@H](CC(=O)O)NC(=O)[C@H](CO)NC(=O)[C@@H](NC(=O)[C@H](Cc1ccccc1)NC(=O)[C@@H](NC(=O)CNC(=O)[C@H](CCC(=O)O)NC(=O)C(C)(C)NC(=O)[C@@H](N)Cc1c[nH]cn1)[C@@H](C)O)[C@@H](C)O)C(C)C)C(C)C)C(=O)NC(C)(C)C(=O)N[C@@H](Cc1c[nH]c2ccccc12)C(=O)N[C@@H](CC(C)C)C(=O)N[C@H](C(=O)N[C@@H](CCC(=O)O)C(=O)N[C@@H](CCCCN)C(=O)NC(C)(C)C(=O)N[C@@H](CCCCN)C(=O)N[C@@H](CCC(=O)O)C(=O)N[C@@H](Cc1ccccc1)C(=O)N[C@@H](CC(C)C)C(N)=O)C(C)C [Compound 3, [Aib8,Glu23,Aib24,Val25,Aib30,Glu34,Lys35,Aib36,Lys37]-GLP-1-(7-37)-peptidyl-Glu-Phe-Leu amide] (H-H[Aib]EGTFTSDVSSYLEGE[Aib]VKEFI[Aib]WLVEK[Aib]KEFL-NH2) |  |  | 82 |
| CC[C@H](C)[C@H](NC(=O)[C@H](Cc1ccccc1)NC(=O)[C@H](CCC(=O)O)NC(=O)[C@H](CCCCN)NC(=O)[C@@H](NC(=O)[C@H](C)NC(=O)[C@H](CCC(=O)O)NC(=O)CNC(=O)[C@H](CCC(=O)O)NC(=O)[C@H](CC(C)C)NC(=O)[C@H](Cc1ccc(O)cc1)NC(=O)[C@H](CO)NC(=O)[C@H](CO)NC(=O)[C@@H](NC(=O)[C@H](CC(=O)O)NC(=O)[C@H](CO)NC(=O)[C@@H](NC(=O)[C@H](Cc1ccccc1)NC(=O)[C@@H](NC(=O)CNC(=O)[C@H](CCC(=O)O)NC(=O)C(C)(C)NC(=O)[C@@H](N)Cc1c[nH]cn1)[C@@H](C)O)[C@@H](C)O)C(C)C)C(C)C)C(=O)N[C@@H](C)C(=O)N[C@@H](Cc1c[nH]c2ccccc12)C(=O)N[C@@H](CC(C)C)C(=O)N[C@H](C(=O)N[C@@H](CCCCN)C(=O)N[C@@H](CCCCN)C(=O)NC(C)(C)C(=O)N[C@@H](CCCCN)C(=O)N[C@@H](CCC(=O)O)C(=O)N[C@@H](Cc1ccccc1)C(=O)N[C@@H](CC(C)C)C(N)=O)C(C)C [Compound 9, [Aib8,Glu23,Val25,Lys35,Aib36,Lys37]-GLP-1-(7-37)-peptidyl-Glu-Phe-Leu amide] (H-H[Aib]EGTFTSDVSSYLEGEAVKEFIAWLVKK[Aib]KEFL-NH2) |  |  | 87 |
| HAEGTFTSDVSSYLEEEAVKEFIAWLVEKVKEFL-NH2 [Compound 135, [Glu22,Glu23,Val25,Glu34,Lys35,Val36,Lys37]-GLP-1-(7-37)-peptidyl-Glu-Phe-Leu amide] |  | 114 |  |
| HAEGTFTSDVSSYLEGQAAKEFIAWLVEKVGEFL-NH2 [Compound 108] | 59 | 17 |  |
| HAEGTFTSDVSSYLEGQAAKEFIAWLVEKVHEFL-NH2 [Compound 141] |  | 30 |  |
| HAEGTFTSDVSSYLEGQAAKEFIAWLVEKVKEF-NH2 [Compound 122, [Glu34,Lys35,Val36,Lys37]-GLP-1-(7-37)-peptidyl-Glu-Phe amide] | 16 | 5 |  |
| HAEGTFTSDVSSYLEGQAAKEFIAWLVEKVKEFL-NH2 [Compound 104, [Glu34,Lys35,Val36,Lys37]-GLP-1-(7-37)-peptidyl-Glu-Phe-Leu amide] | 116 | 23 |  |

Further lines, with some results ahead:

| EC50 (human GLP-1 receptor; [2]) [pM] | EC50 (human GLP-1 receptor; [3]) [pM] | Compound | 4 h Cholesterol Efflux Emax [1] [%] |
| --- | --- | --- | --- |
| 1170 | 588 | CC[C@H](C)[C@H](NC(=O)[C@H](Cc1ccccc1)NC(=O)[C@H](CCC(=O)O)NC(=O)[C@H](CCCCN)NC(=O)[C@H](C)NC(=O)[C@H](CCCCN)NC(=O)[C@H](CCCCN)NC(=O)[C@H](CCC(=O)O)NC(=O)[C@H](CCC(=O)O)NC(=O)[C@H](CC(C)C)NC(=O)[C@H](Cc1ccc(O)cc1)NC(=O)[C@H](CCCCN)NC(=O)[C@H](CO)NC(=O)[C@H](Cc1ccc(O)cc1)NC(=O)[C@H](CC(=O)O)NC(=O)[C@H](CO)NC(=O)[C@@H](NC(=O)[C@H](Cc1ccccc1)NC(=O)[C@@H](NC(=O)CNC(=O)[C@H](CCC(N)=O)NC(=O)[C@H](CO)NC(=O)[C@@H](N)Cc1c[nH]cn1)[C@@H](C)O)[C@@H](C)O)C(=O)N[C@@H](C)C(=O)N[C@@H](Cc1c[nH]c2ccccc12)C(=O)N[C@@H](CC(C)C)C(=O)N[C@@H](CC(C)C)C(=O)N[C@@H](CCC(=O)O)C(=O)N[C@@H](CCCCN)C(=O)NC(C)(C)C(=O)N[C@@H](CCCCN)C(=O)N[C@@H](CCC(=O)O)C(=O)N[C@@H](Cc1ccccc1)C(=O)N[C@@H](CC(C)C)C(N)=O [Compound 58] (H-HSQGTFTSDYSKYLEEKKAKEFIAWLLEK[Aib]KEFL-NH2) |  |
| 434 | 198 | CC(C)C[C@H](NC(=O)[C@H](Cc1ccccc1)NC(=O)[C@H](CCC(=O)O)NC(=O)[C@H](CCCCN)NC(=O)C(C)(C)NC(=O)[C@H](CCCCN)NC(=O)[C@H](CCC(=O)O)NC(=O)[C@H](CC(C)C)NC(=O)[C@H](CC(C)C)NC(=O)[C@H](Cc1c[nH]c2ccccc12)NC(=O)[C@H](CCC(N)=O)NC(=O)[C@@H](NC(=O)[C@H](Cc1ccccc1)NC(=O)[C@H](CCC(=O)O)NC(=O)[C@H](CCCNC(=N)N)NC(=O)[C@H](C)NC(=O)[C@H](C)NC(=O)[C@H](CCCCN)NC(=O)[C@H](CO)NC(=O)[C@H](CC(=O)O)NC(=O)[C@H](CC(C)C)NC(=O)[C@H](Cc1ccc(O)cc1)NC(=O)[C@H](CCCCN)NC(=O)[C@H](CO)NC(=O)[C@H](Cc1ccc(O)cc1)NC(=O)[C@H](CC(=O)O)NC(=O)[C@H](CO)NC(=O)[C@@H](NC(=O)[C@H](Cc1ccccc1)NC(=O)[C@@H](NC(=O)CNC(=O)[C@H](CCC(N)=O)NC(=O)[C@H](CO)NC(=O)[C@@H](N)Cc1c[nH]cn1)[C@@H](C)O)[C@@H](C)O)C(C)C)C(N)=O [Compound 59] (H-HSQGTFTSDYSKYLDSKAAREFVQWLLEK[Aib]KEFL-NH2) |  |
|  | 23 | H-HAEGTFTSDVSSYLEGQAAKEFIAWLVEGVKEFLEK-OH [Compound 127, [Glu34,Val36,Lys37]-GLP-1-(7-37)-peptidyl-Glu-Phe-Leu-Glu-Lys] |  |
|  | 28 | HAEGTFTNDMTNYLEGEAVKEFIAWLVEKGKEFL-NH2 [Compound 27, [Asn14,Met16,Thr17,Asn18,Glu23,Val25,Glu34,Lys35,Gly36,Lys37]-GLP-1-(7-37)-peptidyl-Glu-Phe-Leu amide] |  |
| 20 | 10 | HAEGTFTSDVSSYLEEEAVKEFIAWLVEKVKEF-NH2 [Compound 132, [Glu22,Glu23,Val25,Glu34,Lys35,Val36,Lys37]-GLP-1-(7-37)-peptidyl-Glu-Phe amide] |  |
| 103 |  | HAEGTFTSDVSSYLEGQAAKEFIAWLVEHVKEFL-NH2 [Compound 140, [Glu34,His35,Val36,Lys37]-GLP-1-(7-37)-peptidyl-Glu-Phe-Leu amide] |  |
| 114 | 28 | HAEGTFTSDVSSYLEGQAAKEFIAWLVEKVKEFLE-NH2 [Compound 106, [Glu34,Lys35,Val36,Lys37]-GLP-1-(7-37)-peptidyl-Glu-Phe-Leu-Glu amide] |  |
| 37 | 14 | HAEGTFTSDVSSYLEGQAAKEFIAWLVEKVKEFY-NH2 [Compound 131, [Glu34,Lys35,Val36,Lys37]-GLP-1-(7-37)-peptidyl-Glu-Phe-Tyr amide] |  |
| 104 |  | HGEGTFTSDVSSYLEEEAVKEFIAWLVEKVKEF-NH2 [Compound 133, [Gly8,Glu22,Glu23,Val25,Glu34,Lys35,Val36,Lys37]-GLP-1-(7-37)-peptidyl-Glu-Phe amide] |  |
